Laboratory results published in publication PMC9920246, “Entinostat-Bortezomib Hybrids against Multiple Myeloma” (Molecules, 2023).
Where two headings read alike, the source gives them in different places.

Assays:
[1] = tested on: RPMI 8226 cells; assay: Antiproliferative assay (XTT, 72 h); format: cell-based, human; settings: RPMI 8226 cells, 72 h, XTT, mean ± SD, n = 3
[2] = target: T1, 26S proteasome (Homo sapiens, UniProt P28074); assay: Proteasome inhibitory activity (Suc-LLVY-amc) in RPMI 8226 cell lysate; format: biochemical
T1 sequence (P28074 60-263): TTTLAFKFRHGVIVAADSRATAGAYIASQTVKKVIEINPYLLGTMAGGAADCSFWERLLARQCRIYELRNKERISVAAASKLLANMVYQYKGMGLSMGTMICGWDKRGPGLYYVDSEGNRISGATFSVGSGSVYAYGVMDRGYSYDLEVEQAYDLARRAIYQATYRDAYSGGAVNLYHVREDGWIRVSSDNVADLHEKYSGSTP
Protocol: RPMI 8226 cells (1 × 10^6 cells/mL) were collected, centrifuged, and washed twice with cold PBS (Gibco). The supernatant was discarded, and 200 μL of ice-cold lysis buffer (NP40 cell lysis buffer (Invitrogen, Eugene, OR, USA), supplemented with 1 mM PMSF (Sigma) and protease inhibitor cocktail (Sigma), was added to the pellet. Cells were kept on ice for 30 min and vortexed every 10 min. Samples were then centrifuged at 4 °C for 10 min at 16,000× g. Supernatant containing the proteins was collected. Protein quantification was performed using the Coomassie (Bradford) Protein Assay Kit (ThermoFisher, Waltham, MA, USA) following the manufacturer instructions. In each well of a 96-well black plate (ThermoFisher), 10 µg of proteins were mixed with assay buffer (50 mM Tris-HCl, pH 7.5, 40 mM KCl, 5 mM MgCl2, 0.5 mM ATP, 1 mM DTT, 0.5 mg/mL BSA) in 180 µL total volume. […] The plate was then incubated for 30 min at 37 °C. After incubation, the reaction was started by adding the fluorometric peptide substrate Suc-LLVY-amc (Bio-Techne, Minneapolis, MN, USA) at a final concentration of 100 µM, except for the blank wells. Following 1 h incubation at 37 °C in the dark, the fluorescence signal was red (excitation: 380 nm, emission: 440–460 nm) using a Cytation 3 plate reader (BioTek). The percentage of 26S proteasome activity was measured by comparing the fluorescence of the sample treated with the vehicle control wells and multiplied by 100. The IC50 value was calculated as mentioned above, and each compound was tested in triplicate in three independent experiments.

[3] = tested on: 3D co-culture spheroids containing RPMI 8226 cells and mesenchymal stem cells (MSC) in a 5:1 ratio; assay: Antiproliferative assay in 3D co-culture spheroids (CellTiter-Glo 3D, 48 h); format: cell-based, human; settings: RPMI 8226 + MSC 5:1 spheroids, mean ± SD, n = 3
Protocol: The multiple myeloma human plasma cells RPMI 8226 were purchased from American Type Culture Collection (ATCC, Manassas, VA, USA) and cultured in RPMI 1640 medium (Gibco, Paisley, UK) supplemented with 50 µg/mL streptomycin sulfate, 50 U/mL penicillin G sodium salt (Gibco, Grand Island, NY, USA) and 10% fetal bovine serum (FBS) (Biowest, Nuaillé, France). […] Human MSC from the bone marrow were purchased from PromoCell and were cultured in Mesenchymal Stem Cell Growth Medium 2 (PromoCell, Heidelberg, Germany) supplemented with 100 μg/mL streptomycin sulfate and 100 U/mL penicillin G sodium salt.
RPMI 8226 cells and MSC were mixed in a 5:1 ratio. The cell mixture was centrifuged, and medium containing 20% collagen I (Gibco) adjusted to pH 7 was added to the cell pellet. Five μL drops were plated in each well of an ice-cold 96-well ultra-low attachment U-bottom plate (Corning, Kennebunk, MA, USA) and the plate was incubated for 30 min at 37 °C and 5% CO2 atmosphere. After the incubation, 200 μL of RPMI 1640 medium (Gibco) supplemented with 50 µg/mL streptomycin sulfate, 50 U/mL penicillin G sodium salt (Gibco) and 10% FBS (Biowest) was added to each well. The 3D spheroids were formed after 48 h.
RPMI 8226 and RPMI 8226/BTZ100 cells were seeded in 96-well plates (Costar, Kennebunk, MA, USA) at a density of 15,000 cells per well and directly treated for 72 h with the various compounds using increasing concentrations (0.31–2000 nM). […] Following the treatment, 100 μL of medium was carefully removed from each well and collagenase (1.5 μL of a 100 mg/mL solution, Sigma) was added. The plate was shaken at 37 °C for 10 min at 350 rpm. Then, 100 μL of CellTiter-Glo 3D reagent (Promega, Fitchburg, WI, USA) was added to each well. The plate was incubated for 5 min at 37 °C under agitation at 250 rpm, followed by 25 min at room temperature without agitation. Finally, the luminescence was measured using a Cytation 3 plate reader (BioTek). The percentage of cell proliferation and calculation of the IC50 value were determined as previously described. Each compound was tested in triplicate in three independent experiments.

[4] = tested on: RPMI 8226/BTZ100 cells; assay: cells; format: cell-based, human; settings: for IC50: read-out: IC50 Value Antiproliferative Activity RPMI 8226/BTZ100; for Increased resistance (RPMI 8226/BTZ100 vs. RPMI 8226): ratio of IC50 in resistant vs. parental cells
[5] = tested on: HDAC; assay: HDAC inhibitory activity in RPMI 8226 cells (MAL substrate, UHPLC-MS); format: cell-based, human; settings: 8 h; for Inhibition of HDAC activity: 10 µM
Protocol: RPMI 8226 cells were seeded in 96-well plates (Costar) at a density of 15,000 cells per well in 25 µL of medium containing the HDAC substrate N-(4-methyl-7-aminocoumarinyl)-Nα-(t-butoxycarbonyl)-Nω-acetyllysineamide (21 µM, MAL, Sigma). The cells were directly treated with the compounds at 10 µM or with Ent (0.4–250 µM) for 8 h to obtain a final volume of 50 µL. […] Following the incubation, the reaction was stopped by adding 10 µL of 6X RIPA buffer, supplemented with protease inhibitor (Sigma). Then, 160 µL of cold acetonitrile were added and the plate was placed for 10 min at −80 °C. The plate was centrifuged at 5000× g for 10 min at 4 °C, and the supernatant was transferred into a UHPLC-adapted 96-well plate (Nunc 96-well plate conical bottom, ThermoFisher) and sealed. The substrate (MAL) and its deacetylated product (dMAL) were measured using a UHPLC-MS method as previously described. The percentage of HDAC inhibition is given by 100 − [(tested sample × 100/control sample)], and the dose-response curve of Ent was established.

[6] = 26S proteasome in RPMI 8226 cell lysate, 30 min preincubation, Suc-LLVY-amc 100 µM, mean ± SD, n = 3; read-out: IC50 Value PI Activity
[7] = RPMI 8226 cells resistant to BTZ, 72 h, XTT, mean ± SD, n = 3
[8] = read-out: IC50 Value PI Activity; 26S proteasome in RPMI 8226 cell lysate, 30 min preincubation, Suc-LLVY-amc 100 µM, mean ± SD, n = 3

In the case of CC(C)C[C@H](NC(=O)[C@@H](Cc1ccccc1)NC(=O)c1ccc(C(=O)NCc2ccc(C(=O)Nc3ccccc3N)cc2)cc1)B1OC2CC3CC(C3(C)C)[C@@]2(C)O1 (stereo partly drawn) [Compound 4, N^1-(4-((2-aminophenyl)carbamoyl)benzyl)-N^4-((2R)-1-(((1R)-3-methyl-1-((3aR)-3a,5,5-trimethylhexahydro-4,6-methanobenzo[d][1,3,2]dioxaborol-2-yl)butyl)amino)-1-oxo-3-phenylpropan-2-yl)terephthalamide], the IC50 ([1]; Homo sapiens) is reported as 802 ± 72.7 nM and the IC50 [2, 6] is reported as > 50 nM.

For CC(C)C[C@H](NC(=O)[C@@H](Cc1ccc(N(CCCl)CCCl)cc1)NC(=O)c1cnc(Cl)cn1)B1OC2CC3CC(C3(C)C)[C@]2(C)O1 (stereo partly drawn) [Compound 9, N-((2R)-3-(4-(bis(2-chloroethyl)amino)phenyl)-1-(((1R)-3-methyl-1-((3aS)-3a,5,5-trimethylhexahydro-4,6-methanobenzo[d][1,3,2]dioxaborol-2-yl)butyl)amino)-1-oxopropan-2-yl)-5-chloropyrazine-2-carboxamide], the IC50 [1] was 37.6 ± 1.1 nM, the IC50 [3] was 188 ± 42.5 nM and the IC50 [4, 7] was 1030 ± 205 nM. For the same compound, the IC50 [2, 8] was > 50 nM.

In the case of CC(C)C[C@H](NC(=O)[C@@H](Cc1ccccc1)NC(=O)Cc1ccc(C(=O)Nc2ccc(F)cc2N)cc1)B1OC2CC3CC(C3(C)C)[C@@]2(C)O1 (stereo partly drawn) [Compound 7, N-(2-amino-4-fluorophenyl)-4-(2-(((2R)-1-(((1R)-3-methyl-1-((3aR)-3a,5,5-trimethyl-hexahydro-4,6-methanobenzo[d][1,3,2]dioxaborol-2-yl)butyl)amino)-1-oxo-3-phenylpropan-2-yl)amino)-2-oxoethyl)benzamide], the IC50 ([1]; Homo sapiens) is reported as 31.4 ± 1.7 nM, the IC50 ([3]; Homo sapiens) is reported as 89.3 ± 13.6 nM and the “Inhibition of HDAC activity” value [5] is reported as 37%. For the same compound, the IC50 ([4]; Homo sapiens, RPMI-8226, 72 h) was 831 ± 139 nM and the IC50 [2, 6] was 7.2 ± 1.7 nM.

For CC(C)C[C@H](NC(=O)[C@@H](Cc1ccccc1)NC(=O)Cc1ccc(C(=O)Nc2ccccc2N)cc1)B1OC2CC3CC(C3(C)C)[C@@]2(C)O1 (stereo partly drawn) [Compound 6, N-(2-aminophenyl)-4-(2-(((2R)-1-(((1R)-3-methyl-1-((3aR)-3a,5,5-trimethylhexahydro-4,6-methanobenzo[d][1,3,2]dioxaborol-2-yl)butyl)amino)-1-oxo-3-phenylpropan-2-yl)amino)-2-oxoethyl)benzamide], the IC50 ([1]; Homo sapiens) was 337 ± 49.4 nM and the IC50 [2, 6] was > 50 nM.

In the case of CC(C)C[C@H](NC(=O)[C@@H](Cc1ccccc1)NC(=O)c1cnc(C(=O)Nc2ccccc2N)cn1)B1OC2CC3CC(C3(C)C)[C@]2(C)O1 (stereo partly drawn) [Compound 3, N^2-(2-aminophenyl)-N^5-((2R)-1-(((1R)-3-methyl-1-((3aS)-3a,5,5-trimethylhexahydro-4,6-methanobenzo[d][1,3,2]dioxaborol-2-yl)butyl)amino)-1-oxo-3-phenylpropan-2-yl)pyrazine-2,5-dicarboxamide], the IC50 ([1]; Homo sapiens) is reported as 9.5 ± 1.4 nM, the IC50 ([3]; Homo sapiens) is reported as 13.1 ± 6.9 nM and the “Inhibition of HDAC activity” value [5] is reported as 33%. For the same compound, the IC50 ([4]; Homo sapiens, RPMI-8226, 72 h) was 158 ± 15.8 nM, the “Increased resistance (RPMI 8226/BTZ100 vs. RPMI 8226)” value [4] was 16.6 fold and the IC50 [2, 6] was 27.2 ± 6.2 nM.

CC(C)C[C@H](NC(=O)[C@@H](Cc1ccccc1)NC(=O)c1cnc(C(=O)NCc2ccc(C(=O)Nc3ccccc3N)cc2)cn1)B1OC2CC3CC(C3(C)C)[C@@]2(C)O1 (stereo partly drawn) [Compound 5, N^2-(4-((2-aminophenyl)carbamoyl)benzyl)-N^5-((2R)-1-(((1R)-3-methyl-1-((3aR)-3a,5,5-trimethylhexahydro-4,6-methanobenzo[d][1,3,2]dioxaborol-2-yl)butyl)amino)-1-oxo-3-phenylpropan-2-yl)pyrazine-2,5-dicarboxamide] showed an IC50 ([1]; Homo sapiens) of 25.2 ± 2.2 nM, an IC50 ([3]; Homo sapiens) of 65.1 ± 14.1 nM and an IC50 ([4]; Homo sapiens, RPMI-8226, 72 h) of 203 ± 36.1 nM. The “Increased resistance (RPMI 8226/BTZ100 vs. RPMI 8226)” value [4] was 8.0 fold and the IC50 [2, 6] was 14.8 ± 2.5 nM.

For CC(C)C[C@H](NC(=O)c1cnc(C(=O)Nc2ccccc2N)cn1)B1OC2CC3CC(C3(C)C)[C@]2(C)O1 (stereo partly drawn) [Compound 10, N^2-(2-aminophenyl)-N^5-((1R)-3-methyl-1-((3aS)-3a,5,5-trimethylhexahydro-4,6-methanobenzo[d][1,3,2]dioxaborol-2-yl)butyl)pyrazine-2,5-dicarboxamide], the IC50 ([1]; Homo sapiens) was > 2000 nM and the IC50 [2, 6] was > 50 nM.

CC(C)C[C@H](NC(=O)[C@@H](Cc1ccc(N(CCCl)CCCl)cc1)NC(=O)c1cnccn1)B1OC2CC3CC(C3(C)C)[C@]2(C)O1 (stereo partly drawn) [Compound 8, N-((2R)-3-(4-(bis(2-chloroethyl)amino)phenyl)-1-(((1R)-3-methyl-1-((3aS)-3a,5,5-trimethylhexahydro-4,6-methanobenzo[d][1,3,2]dioxaborol-2-yl)butyl)amino)-1-oxopropan-2-yl)pyrazine-2-carboxamide] was tested, and the IC50 [1] was 19.6 ± 0.4 nM, the IC50 [3] was 30 ± 1.6 nM and the IC50 [4, 7] was 1010 ± 88.6 nM. For the same compound, the IC50 [2, 8] was 12.1 ± 1.1 nM.

CC(C)CC(NC(=O)C(Cc1ccccc1)NC(=O)CCC(=O)NCc1ccc(C(=O)Nc2ccccc2N)cc1)B1OC2CC3CC(C3(C)C)C2(C)O1 [Compound 1, N^1-(4-((2-aminophenyl)carbamoyl)benzyl)-N^4-((2R)-1-(((1R)-3-methyl-1-((3aR)-3a,5,5-trimethylhexahydro-4,6-methanobenzo[d][1,3,2]dioxaborol-2-yl)butyl)amino)-1-oxo-3-phenylpropan-2-yl)succinimide] gave an IC50 ([1]; Homo sapiens) of 678 ± 42.5 nM and an IC50 [2, 6] of 10.3 ± 2.7 nM.

In the case of Nc1ccccc1NC(=O)c1ccc(CNC(=O)OCc2cccnc2)cc1 [Ent, entinostat], the IC50 ([1]; Homo sapiens) is reported as 329 ± 25.7 nM, the IC50 ([3]; Homo sapiens) is reported as 349 ± 133 nM and the “Inhibition of HDAC activity” value [5] is reported as 51%. The IC50 ([5]; 0.4–250 µM, read-out: HDAC inhibition IC50) was 9300 ± 700 nM and the IC50 ([4]; Homo sapiens, RPMI-8226, 72 h) was 562 ± 51.7 nM.
